Source: patent publication US20250000855A1, “USE OF APOMORPHINE AS THERAPEUTIC AGENT FOR NECROPTOSIS-RELATED DISEASES” (INDUSTRY-ACADEMIC COOPERATION FOUNDATION, YONSEI UNIVERSITY, priority 2021, published 2025)

Tested on: DSS-induced colitis
Test: DSS-induced colitis mouse model
Type: in vivo, C57BL/6 mice
Description: An animal experiment was performed on 6 to 8-week-old male C57BL/6 mice in accordance with the procedures approved by the Animal Care and Use Committee of the Yonsei Laboratory Animal Research Center (YLARC, 2018-0024) at Yonsei University. The mice were housed in polypropylene cages with a maximum of four mice per cage under constant temperature and humidity, and the light/dark cycle was 12 hours/12 hours. All mice were given an acclimation period of at least 7 days before participation.
For colitis induced by dextran sulfate sodium (DSS, 36-50 kDa, MP Biomedicals), the mice were administered 2.5% DSS in drinking water for 7 days. The mice were randomly divided into 8 groups as follows. • 1) Control • 2) Apomorphine-treated group (=APO; STK088477, Vitas-M, 1.5 mg/kg, daily intraperitoneal injection) • 3) APO-treated group (15 mg/kg, daily intraperitoneal injection) 4) DSS-treated group • 5) DSS and necrostatine-1-treated group (NEC-1; Biovision, 1864-5, 1.5 mg/kg, daily intraperitoneal injection) • 6) DSS and APO-treated group (0.15 mg/kg, daily intraperitoneal injection) • 7) DSS and APO-treated group (1.5 mg/kg, daily intraperitoneal injection) • 8) DSS and APO-treated group (15 mg/kg, daily intraperitoneal injection)
The body weights and disease activity index (DAI) scores of the mice were recorded daily. DAI was calculated by adding scores of body weight loss (0 point=none, 1 point=1%-5% weight loss, 2 points=5%-10% weight loss, 3 points=10%-15% weight loss, 4 points=15% or more weight loss), stool consistency/diarrhea (0 point=normal, 2 points=loose stools, 4 points=watery diarrhea), and bleeding (0 point=no bleeding, 2 points=slight bleeding, 4 points=total bleeding). At the end of the experiment, the mice were sacrificed, the colon was removed, and then changes in colon length were confirmed, and a weight loss was measured.
At the end of the experiment, the mice were sacrificed, and the colon was removed (without the cecum). The removed colon was washed with cold phosphate-buffered saline (PBS; Welgene, LB001-02) before the measurement of its length. The measured colon was prepared for further analysis by cutting intestinal segments along the mesenteric line and washing with PBS. Then, the intestinal segments were placed in a petri dish and fixed with modified Bouin's fixative (50% ethanol/5% acetic acid in dH2O). The lumen side was maintained upward by holding the proximal end with forceps in one hand and a toothpick in the other. Then, the flat open end of the colon was pulled with the forceps and the proximal end was wrapped around the toothpick. The entire large intestine was wrapped, placed in a cassette, and immersed in 4% paraformaldehyde (Biosesang, PC2031-100-00) at 4° C. overnight.
After the experiment, colon tissues collected from the sacrificed mice were fixed in 4% paraformaldehyde overnight. Swiss-rolled and fixed colon specimens were embedded in paraffin. The specimens were cut into 5-μm sections, and then the sections were stained with hematoxylin and eosin (H & E). The histological evaluation of colitis lesions along the entire length was performed with reference to a scoring system of the degree of crypt structure damage (0˜3), the degree of inflammatory cell infiltration (0˜3), and submucosal edema (0˜3).
5-μm cut paraffin sections were blocked with 5% BSA-supplemented TBS-T, and then the sections and primary antibodies were co-incubated at 4° C. overnight. Secondary antibodies were added and incubated for 1 hour. […]

CN1CCc2cccc3c2[C@H]1Cc1ccc(O)c(O)c1-3 [APO, apomorphine]
characteristic symptoms of colitis observed by H&E staining and PAS staining (DSS mice, APO 0.15, 1.5, and 15 mg/kg daily intraperitoneal injection, FIG. 7A): alleviated in a concentration-dependent manner
HI score (DSS mice, APO daily intraperitoneal injection, FIG. 7A): reduce
degree of colon shortening (DSS mice, APO daily intraperitoneal injection, FIG. 7B): reduce
DAI score (DSS mice, APO daily intraperitoneal injection, FIG. 7C): reduce
differences due to treatment with APO alone (without DSS) (mice without DSS, APO 1.5 or 15 mg/kg daily intraperitoneal injection): no differences
